Laboratory results as given in ChEMBL document CHEMBL1201862, “PubChem BioAssay data set” (2004).
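Cultured in 96-well plates, cells were exposed to test compound for 48 hours across five concentrations. The concentration for 50% growth inhibition is given as GI50.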 Activity calls are given as the source filed them. No stated cut-off is given here; in the data, active = GI50 up to about 1.1 µM and inactive = higher. Where a SMILES comes first, the peptide text is derived from it. [ ]: non-standard residue; d: D form. The star is where a group is joined. NMeF = CN[C@@H](Cc1ccccc1)C(=O)O; NMeV = CN[C@H](C(=O)O)C(C)C; Boc = CC(C)(C)OC(=O)*; OBn = c1ccc(CO*)cc1

How the values were obtained:
Assay in all cases: NCI tumour cell line growth inhibition, 48 h
LXFL 529 = test system: LXFL 529
M19-MEL = test system: M19-MEL
KM-20L2 = test system: KM-20L2
HOP-18 = test system: HOP-18
DMS-114 = test system: DMS-114
SNB-78 = test system: SNB-78
DMS-273 = test system: DMS-273
XF498 = test system: XF498
RXF 631 = test system: RXF 631

Row | Compound | GI50 (LXFL 529) | GI50 (M19-MEL) | GI50 (KM-20L2) | GI50 (HOP-18) | GI50 (DMS-114) | GI50 (SNB-78) | GI50 (DMS-273) | GI50 (XF498) | GI50 (RXF 631)
1 | O=C1Cc2nc(CO)c(CO)c(CO)c2CO1 | > 100 µM (inactive) | > 100 µM (inactive) | > 100 µM (inactive) | > 100 µM (inactive) | > 100 µM (inactive) | > 100 µM (inactive) | > 100 µM (inactive) |  | 
2 | CC(=O)c1ccc(N2C(=O)C3c4[nH]c5ccccc5c4C4CCC(C(C)(C)C)CC4C3C2=O)cc1 (stereo unspecified) | 29.3 µM (inactive) | 19.2 µM (inactive) | 18.7 µM (inactive) | 91.6 µM (inactive) | 23.1 µM (inactive) | 19.6 µM (inactive) | 17.7 µM (inactive) |  | 
3 | C=CCC(N(C)C(=O)[C@H](Cc1ccccc1)NC(=O)OCc1ccccc1)P(=O)(Oc1ccccc1)Oc1ccccc1 (stereo partly specified) | 6.79 µM (inactive) | > 100 µM (inactive) | > 100 µM (inactive) |  | 5.62 µM (inactive) | > 100 µM (inactive) | > 100 µM (inactive) | > 100 µM (inactive) | 
4 | O=C1CCCCCCCCCCC(=O)N2CCOCCOCCN1Cc1cccc(n1)C2 | > 100 µM (inactive) | > 100 µM (inactive) | > 100 µM (inactive) |  | > 100 µM (inactive) | > 100 µM (inactive) | > 100 µM (inactive) |  | > 100 µM (inactive)
5 | Cc1c(C(=O)CC(=O)C(=O)Nc2cccc(C(F)(F)F)c2)[n+]([O-])c2ccccc2[n+]1[O-] | 4.02 µM (inactive) | 1.82 µM (inactive) | 3.8 µM (inactive) | 11.2 µM (inactive) | 1.92 µM (inactive) | 6.79 µM (inactive) | 3.41 µM (inactive) |  | 2.84 µM (inactive)
6 | COc1ccc(CNc2cnc3ccc(N)cc3n2)cc1OC |  | 64.3 µM (inactive) |  | 0.548 µM (active) | 47.3 µM (inactive) | > 100 µM (inactive) | 41.3 µM (inactive) | > 100 µM (inactive) | 
7 | O=C(/C=C/c1ccco1)N1CCN(Cc2ccccc2)CC1 | > 100 µM (inactive) | > 100 µM (inactive) | > 100 µM (inactive) | > 100 µM (inactive) | > 100 µM (inactive) | > 100 µM (inactive) | > 100 µM (inactive) | > 100 µM (inactive) | > 100 µM (inactive)
8 | O=C(COc1ccc(Br)cc1Br)N1N=C(c2ccc([N+](=O)[O-])o2)CC1(O)c1ccccc1 (stereo unspecified) | 8.73 µM (inactive) |  | 17.9 µM (inactive) | 8.75 µM (inactive) | 6.11 µM (inactive) | 27.2 µM (inactive) | 12.8 µM (inactive) |  | 
9 | CN(C)c1ccc(/C=C/c2ccc(/C=C/c3ccc(N(C)C)cc3)cc2)cc1 | 75.9 µM (inactive) | > 100 µM (inactive) | > 100 µM (inactive) | > 100 µM (inactive) |  | > 100 µM (inactive) | > 100 µM (inactive) |  | > 100 µM (inactive)
10 | Cc1cc(N(CCC#N)CCC#N)ccc1/C=C(\NC(=O)/C=C/c1ccccc1)C(=O)Nc1ccc(Cl)cc1 | 0.0991 µM (active) | 0.944 µM (active) |  | > 100 µM (inactive) | 1.62 µM (inactive) | > 100 µM (inactive) | 0.982 µM (active) | > 100 µM (inactive) | > 100 µM (inactive)
11 | CC1C(=O)O[C@H]2C1CC[C@@]1(C)[C@H](O)CC[C@@]13C[C@]2(O)OO3 (stereo partly specified) | > 100 µM (inactive) | > 100 µM (inactive) | > 100 µM (inactive) | > 100 µM (inactive) | > 100 µM (inactive) |  | > 100 µM (inactive) |  | 
12 | CC(=O)OC(C)(C)[C@@H]1CC[C@]2(C)/C=C/[C@H](C)C[C@@H](O)C3=C(C)C[C@@H](O3)C12 (stereo partly specified) | > 100 µM (inactive) | > 100 µM (inactive) | > 100 µM (inactive) | > 100 µM (inactive) | > 100 µM (inactive) | > 100 µM (inactive) | > 100 µM (inactive) |  | > 100 µM (inactive)
13 | CC1C[C@@]2(c3ccccc3)C(=O)CCC[C@H]2N1 (stereo partly specified) | > 100 µM (inactive) | > 100 µM (inactive) | > 100 µM (inactive) |  | > 100 µM (inactive) | > 100 µM (inactive) | > 100 µM (inactive) |  | 
14 | CC(C)[C@@H](C(=O)N1CCC[C@H]1C(=O)OCc1ccccc1)N(C)C(=O)[C@H](C(C)C)N(C)C(=O)[C@H](Cc1ccccc1)N(C)C(=O)[C@H](NC(=O)OC(C)(C)C)C(C)C (Boc-[dV][NMeF][NMeV][NMeV]P-OBn) | 22.2 µM (inactive) |  |  | > 100 µM (inactive) | 19.6 µM (inactive) |  | 24.3 µM (inactive) |  | 
